According to patent US11040981B2, “Pyrrolotriazine compounds and methods of inhibiting TAM kinases” (Syros Pharmaceuticals, Inc., priority 2017, dated 2021):

How the values were obtained:
AXL = target: T1, AXL (Homo sapiens, UniProt P30530); assay: TR-FRET kinase activity assay, AXL; assay type: biochemical; settings: ATP at Km, 60 minutes
T1 sequence (P30530 26-894): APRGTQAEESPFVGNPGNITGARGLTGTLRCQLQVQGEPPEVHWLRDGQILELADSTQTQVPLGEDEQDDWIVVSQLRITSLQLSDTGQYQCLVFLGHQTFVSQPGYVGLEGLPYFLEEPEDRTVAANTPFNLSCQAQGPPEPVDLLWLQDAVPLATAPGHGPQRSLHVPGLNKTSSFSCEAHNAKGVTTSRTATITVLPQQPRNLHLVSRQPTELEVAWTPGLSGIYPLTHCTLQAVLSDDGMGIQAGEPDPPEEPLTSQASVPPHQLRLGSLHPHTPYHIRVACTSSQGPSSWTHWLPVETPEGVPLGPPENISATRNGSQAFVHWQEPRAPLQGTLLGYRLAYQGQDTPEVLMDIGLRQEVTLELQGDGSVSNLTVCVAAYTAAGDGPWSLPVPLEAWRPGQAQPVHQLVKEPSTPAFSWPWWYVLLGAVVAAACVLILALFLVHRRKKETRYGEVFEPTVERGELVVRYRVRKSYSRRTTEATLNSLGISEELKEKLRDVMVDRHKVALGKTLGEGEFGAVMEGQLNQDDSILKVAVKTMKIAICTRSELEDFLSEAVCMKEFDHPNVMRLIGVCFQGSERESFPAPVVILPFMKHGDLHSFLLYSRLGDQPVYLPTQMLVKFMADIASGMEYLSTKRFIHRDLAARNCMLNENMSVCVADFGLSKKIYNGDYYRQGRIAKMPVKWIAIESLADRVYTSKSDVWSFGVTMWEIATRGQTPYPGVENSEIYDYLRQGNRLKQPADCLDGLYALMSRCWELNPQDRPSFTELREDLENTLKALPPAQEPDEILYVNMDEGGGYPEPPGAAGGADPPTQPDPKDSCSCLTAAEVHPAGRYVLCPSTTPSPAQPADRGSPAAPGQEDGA
Method in brief: (§1)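 Recombinant human kinases, fluorescent peptide substrate, ATP at Km; 1 h RT, pH 7.5. EDTA-quenched, Eu antibody added, TR-FRET read; IC50 determined.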

FLT3 = target: T2, FLT3 (Homo sapiens, UniProt P36888); assay: TR-FRET kinase activity assay, FLT3; assay type: biochemical; settings: ATP at Km, 60 minutes
T2 sequence (P36888 27-993): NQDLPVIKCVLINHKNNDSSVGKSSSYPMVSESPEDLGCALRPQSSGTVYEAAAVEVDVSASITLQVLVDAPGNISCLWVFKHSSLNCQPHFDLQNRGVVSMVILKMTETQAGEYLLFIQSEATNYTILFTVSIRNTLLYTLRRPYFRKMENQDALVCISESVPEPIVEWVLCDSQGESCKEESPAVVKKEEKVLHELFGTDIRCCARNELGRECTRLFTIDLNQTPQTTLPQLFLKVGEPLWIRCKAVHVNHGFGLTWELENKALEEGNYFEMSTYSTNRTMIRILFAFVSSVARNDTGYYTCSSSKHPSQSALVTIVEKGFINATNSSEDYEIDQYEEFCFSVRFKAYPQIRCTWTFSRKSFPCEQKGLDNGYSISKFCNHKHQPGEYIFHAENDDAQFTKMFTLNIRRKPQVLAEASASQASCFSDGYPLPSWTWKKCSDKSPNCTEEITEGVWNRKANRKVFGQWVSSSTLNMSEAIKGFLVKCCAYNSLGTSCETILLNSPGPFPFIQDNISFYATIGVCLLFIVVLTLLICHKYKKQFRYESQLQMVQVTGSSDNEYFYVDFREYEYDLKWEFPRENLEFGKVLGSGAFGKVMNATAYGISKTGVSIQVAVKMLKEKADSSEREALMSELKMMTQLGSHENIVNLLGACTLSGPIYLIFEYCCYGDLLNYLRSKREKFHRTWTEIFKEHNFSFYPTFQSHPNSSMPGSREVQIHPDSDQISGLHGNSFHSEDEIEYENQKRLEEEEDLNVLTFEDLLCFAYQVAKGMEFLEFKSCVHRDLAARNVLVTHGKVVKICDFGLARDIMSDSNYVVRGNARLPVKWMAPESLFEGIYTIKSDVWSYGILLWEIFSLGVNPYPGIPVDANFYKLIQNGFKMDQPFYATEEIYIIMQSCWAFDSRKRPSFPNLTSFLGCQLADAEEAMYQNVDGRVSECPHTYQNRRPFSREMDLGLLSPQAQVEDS
Method in brief: as §1

IC50 (AXL) [nM] | IC50 (FLT3) [nM] | SMILES
100 to 1000 | 1000 to 10000 | COC[C@H](C)Nc1ncc2c(-c3cnn(C4COC4)c3)cc(-c3ccc(OC)cc3)n2n1 [Compound 502]
100 to 1000 | 1000 to 10000 | COC[C@H](C)Nc1ncc2c(-c3cnn(C4COC4)c3)cc(C3CCOCC3)n2n1 [Compound 503]
≤ 100 | 100 to 1000 | COC[C@H](C)Nc1ncc2c(-c3ccnc(N4CCN(C(=O)OC5COC5)CC4)c3)cc([C@H]3CC[C@H](O)CC3)n2n1 [Compound 504]
≤ 100 | 1000 to 10000 | COC[C@H](C)Nc1ncc2c(-c3ccnc(F)c3)cc([C@H]3CC[C@H](O)CC3)n2n1 [Compound 505]
≤ 100 | 100 to 1000 | COC[C@H](C)Nc1ncc2c(-c3cnn(CC(C)(C)N4CCOCC4)c3)cc([C@H]3CC[C@H](O)CC3)n2n1 [Compound 507]
≤ 100 | 1000 to 10000 | COC[C@H](C)Nc1ncc2c(-c3conc3C)cc([C@H]3CC[C@H](O)CC3)n2n1 [Compound 508]
≤ 100 | 1000 to 10000 | COC[C@H](C)Nc1ncc2c(-c3ccnc(N4CCc5nc(C)sc5C4)c3)cc([C@H]3CC[C@H](O)CC3)n2n1 [Compound 509]
